In US20260317340A1, “COMPOUNDS, COMPOSITIONS, AND METHODS OF TREATING DISORDERS” (Chengdu Anticancer Bioscience, Ltd., priority 2023, published 2026) one finds TGI % and minimal effective concentration data, which are given here for three molecules.

Assay [1] can be described thus: Tumor growth inhibition, CT26 allograft in BAL B/c mice. The class given is in vivo, mouse tumor cell line in BAL B/c mice. As to conditions: oral, 20 days, 30% PEG300. As for the experimental part:
(§1) Six- to seven-week-old female BAL B/c nude mice were used in the human cancer cell line NCI-H460, which was derived from a lung cancer patient. Six- to seven-week-old female BAL B/c mice were used in the mouse […] cell line CT26 allograft models. 100 μL cell suspensions containing one million cells with […] (Corning, Cat. No. 354254) were implanted subcutaneously into the right flank of mice. Mice were monitored daily for well-being and weighed twice weekly. Caliper measurements of tumor sizes began when tumors became visible. Tumor volume (TV) was calculated by measuring two perpendicular diameters using the following formula: (L×W2)/2 in which L and W refer to the length and width of a tumor, respectively. When tumors reached an average size of 100 mm3, mice were first ranked according to tumor size and divided into “n” cohorts with X mice in each cohort. Each cohort was then sorted into 1 to X groups according to the random numbers size order generated by the RAND 0)function in Excel. In this way, the mice were randomized into X groups (n=4-6). Then the mice were orally administrated with vehicle (30% PEG 300) or indicated compounds at a dose volume of 5 mL/kg in a double-blinded manner. Oral administration was chosen because this is the intended route of use in the clinic. In all cases, no tumor measurement data or animals were excluded from the data analysis. Percentage of tumor growth inhibition (TGI) was calculated using the following formula: % TGI=average 100×[1−(final TV−initial TV of treatment group)/(final TV−initial TV of control group)]. As set forth in table 3 below, an values of greater than or equal to 35% and less than or equal to 45% […] is marked “C”; a value greater than 45% and less than or equal to 55% is marked “B”; a value greater than 55% and less than or equal to 70% is marked “A”; and […]

Assay [2] relates to RPE-Neo or RPE-MYC cells. Kind of assay: MTT assay of cellular proliferation (proliferative arrest). It is filed as cell-based. As to conditions: read-out: Min. Effective conc. for Proliferative arrest (>50%).
Assay [3] concerns human cancer cell line NCI-H460. Kind of assay: Tumor growth inhibition, NCI-H460 tumors in BAL B/c nude mice. The class given is in vivo, human tumor cell line in BAL B/c nude mice. As to conditions: oral, 8 mg/kg, 4 days-on, 3 days-off, 20 days, 30% PEG300. As for the experimental part:
as §1

The subject of assay [4] is RPE-Neo or RPE-MYC or RPE-MYC expressing an EGFP-Histone 2B fusion protein. Kind of assay: Phenotypic screening assay: arrest in mitosis, change in DNA content (polyploidy), cell death. It is filed as cell-based. As to conditions: 20 nM to 20 μM, 24, 48 or 72 hours. Summed up: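 RPE-Neo, RPE-MYC or RPE-MYC EGFP-H2B cells plated 18-24 h before treatment with compounds at 20 nM to 20 μM. Mitotic arrest or DNA-content change scored by automated imaging at 24, 48 or 72 h; proliferation by MTT. Values binned into A–D ranges.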

Where [5] appears, read: read-out: Min. Effective conc. for Along with Cell Death.
[6] abbreviates: ≥5%, read-out: Min. Effective conc. for Mitotic Arrest (≥5%).
Where [7] appears, read: ≥5%, read-out: Min. Effective conc. for Polyploidy (≥5%).

Read-outs that look alike come from different tables or passages of the source.

As to `COc1ccc(CN2C(=O)CC(c3ncc(C)o3)=Cc3ccc(-c4cnn(CC(C)(C)O)c4)cc32)cc1` [Compound 37, 8-(1-(2-hydroxy-2-methylpropyl)-1H-pyrazol-4-yl)-1-(4-methoxybenzyl)-4-(5-methyloxazol-2-yl)-1,3-dihydro-2H-benzo[b]azepin-2-one], the TGI % entry in assay [1] (8 mg/kg, 3 days-on, 4 days-off) was “B (greater than 45% and less than or equal to 55%)”; in assay [3], “A (greater than 55% and less than or equal to 70%)”. Besides, the minimal effective concentration in assay [2], in assay [4] (setting [5]), in assay [4] (setting [6]) and in assay [4] (setting [7]) was 0.001 to 1 µM each time.
Turning to `COc1ccc(CN2C(=O)CC(c3cnco3)=Cc3ccc(-c4cnn(CC(C)(C)O)c4)cc32)cc1` [Compound 96, 8-(1-(2-Hydroxy-2-methylpropyl)-1H-pyrazol-4-yl)-1-(4-methoxybenzyl)-4-(oxazol-5-yl)-1,3-dihydro-2H-benzo[b]azepin-2-one], the TGI % entry in assay [1] (20 mg/kg, 4 days-on, 3 days-off) was “A (greater than 55% and less than or equal to 70%)”. The minimal effective concentration in assay [2], in assay [4] (setting [5]), in assay [4] (setting [6]) and in assay [4] (setting [7]) was 0.001 to 1 µM throughout.
In the case of `COc1ccc(CN2C(=O)CC(c3ncc(C)o3)=Cc3ccc(-c4cnn(CC(C)O)c4)cc32)cc1` (stereo not shown) [Compound 61, 8-(1-(2-hydroxypropyl)-1H-pyrazol-4-yl)-1-(4-methoxybenzyl)-4-(5-methyloxazol-2-yl)-1,3-dihydro-2H-benzo[b]azepin-2-one], the TGI % result in assay [1] (10 mg/kg, 4 days-on, 3 days-off) is “A (greater than 55% and less than or equal to 70%)”. In addition, the minimal effective concentration in assay [2], in assay [4] (setting [5]), in assay [4] (setting [6]) and in assay [4] (setting [7]) was 0.001 to 1 µM throughout.
